# In patent US5250283A, “Organic contrast agent analog and method of making same” (priority 1992, dated 1993):
# Structures can show the parent of a compound that is named as a salt. Where two headings read alike, the source gives them in different places.
# Key:
# [1] = Biliary excretion and bile flow after i.v. TFA-IOP (100 umol/kg) or IOP (100 in text, 104 umol/kg in tables) in rats; details: rat; for dose excreted at 10 min / dose excreted at 20 min / dose excreted at 0.5 h / dose excreted at 40 min / dose excreted at 50 min / dose excreted at 1 h / dose excreted at 70 min / dose excreted at 80 min / dose excreted at 1.5 h / dose excreted at 0 h: in vivo, iv, 100 umol/kg
# Protocol: Tissues examined included liver, spleen, upper GI, lower GI, kidney, lung and heart. The length of each study was 90 minutes, during which time bile, urine and plasma samples were taken to monitor uptake and excretion. NMR relaxation rates for liver and plasma were also examined to note whether uptake of either compound might possible alter these parameters.
# [2] = Tissue distribution 90 min after i.v. TFA-IOP (100 umol/kg) or IOP (100 in text, 104 umol/kg in tables) in rats; type: in vivo; details: rat; for concentration at 1.5 h / tissue uptake at 1.5 h: iv; for concentration at 1.5 h: 100 umol/kg; for Percentage of dose in tissue: Table 6; for tissue uptake at 1.5 h: in vivo, read-out: Percentage of dose per gram
# Text: No standard curves were compiled for these tissues. The values given
# represent concentrations generated using the LIVER analysis routine and
# standard curve. Because this routine utilizes a control LIVER spectra for
# background modeling, erroneous Iodine concentration values for these
# tissues may result due to inappropriate background removal.
# [3] = Plasma concentration after i.v. IOP or TFA-IOP in rats; type: in vivo; details: rat
# [4] = Urinary excretion after i.v. IOP or TFA-IOP in rats; type: in vivo; details: rat
# [5] = i.v., 90 min, Table 1, liver standard curve, may be erroneous
compound,measurement,setting,value
"CCC(Cc1c(I)cc(I)c(NC(=O)C(F)(F)F)c1I)C(=O)O (centres unmarked) [TFA-IOP, N-trifluoroacetyl-iopanoic acid]",umoles running total in bile,"[1]; i.v., through 0-10 min",1.36 UMOLES
same,umoles running total in bile,"[1]; i.v., through 10-20 min",3.48 UMOLES
same,umoles running total in bile,"[1]; i.v., through 20-30 min",6.09 UMOLES
same,umoles running total in bile,"[1]; i.v., through 30-40 min",8.42 UMOLES
same,umoles running total in bile,"[1]; i.v., through 40-50 min",10.75 UMOLES
same,umoles running total in bile,"[1]; i.v., through 50-60 min",13.13 UMOLES
same,umoles running total in bile,"[1]; i.v., through 60-70 min",14.60 UMOLES
same,umoles running total in bile,"[1]; i.v., through 70-80 min",16.00 UMOLES
same,umoles running total in bile,"[1]; i.v., through 80-90 min",17.21 UMOLES
same,umoles running total in bile,"[1]; i.v., through period printed 10-0 min (pre-injection)",.13 UMOLES
same,rate of biliary excretion relative to IOP,"[1]; i.v., vs IOP, FIG. 8",approximately twice
same,dose excreted at 10 min,"[1]; Percentage of dose in bile sample, 0-10 min",2.82%
same,dose excreted at 20 min,"[1]; Percentage of dose in bile sample, 10-20 min",4.88%
same,dose excreted at 0.5 h,"[1]; Percentage of dose in bile sample, 20-30 min",5.99%
same,dose excreted at 40 min,"[1]; Percentage of dose in bile sample, 30-40 min",5.37%
same,dose excreted at 50 min,"[1]; Percentage of dose in bile sample, 40-50 min",5.35%
same,dose excreted at 1 h,"[1]; Percentage of dose in bile sample, 50-60 min",5.48%
same,dose excreted at 70 min,"[1]; Percentage of dose in bile sample, 60-70 min",3.36%
same,dose excreted at 80 min,"[1]; Percentage of dose in bile sample, 70-80 min",3.24%
same,dose excreted at 1.5 h,"[1]; Percentage of dose in bile sample, 80-90 min",2.77%
same,dose excreted at 0 h,"[1]; Percentage of dose in bile sample, period 10-0 min (pre-injection)",0.31%
same,dose excreted at 10 min,"[1]; Percentage of dose running total in bile, through 0-10 min",3.12%
same,dose excreted at 20 min,"[1]; Percentage of dose running total in bile, through 10-20 min",8%
same,dose excreted at 0.5 h,"[1]; Percentage of dose running total in bile, through 20-30 min",14%
same,dose excreted at 40 min,"[1]; Percentage of dose running total in bile, through 30-40 min",19.4%
same,dose excreted at 50 min,"[1]; Percentage of dose running total in bile, through 40-50 min",24.7%
same,dose excreted at 1 h,"[1]; Percentage of dose running total in bile, through 50-60 min",30.2%
same,dose excreted at 70 min,"[1]; Percentage of dose running total in bile, through 60-70 min",33.6%
same,dose excreted at 80 min,"[1]; Percentage of dose running total in bile, through 70-80 min",36.8%
same,dose excreted at 1.5 h,"[1]; Percentage of dose running total in bile, through 80-90 min",39.6%
same,dose excreted at 0 h,"[1]; Percentage of dose running total in bile, through period printed 10-0 min (pre-injection)",0.31%
same,concentration at 1.5 h,"[2]; heart, i.v., 90 min, liver standard curve used, may be erroneous, read-out: Heart concentration",243 µM
same,% of dose in kidney,"[2]; i.v., 90 min, Table 1",0.34%
same,% of dose in liver,"[2]; i.v., 90 min, Table 1",6.04%
same,% of dose in heart,[2]; [5],0.72%
same,% of dose in lower GI,[2]; [5],0.63%
same,% of dose in lung,[2]; [5],0.83%
same,% of dose in spleen,[2]; [5],0.24%
same,% of dose in upper GI,[2]; [5],0.41%
same,Percentage of dose per kg b.wt.,"[2]; i.v., 90 min, heart",1.66 PERCENTAGE OF DOSE per kg b.wt
same,uMoles in tissue,"[2]; i.v., 90 min, heart",.31 µmol
same,uMoles per gram tissue,"[2]; i.v., 90 min, heart",.24 uMOLES per gram
same,uMoles per kg,"[2]; i.v., 90 min, heart",242.85 uMOLES per kg
same,Percentage of dose in tissue,"[2]; i.v., 90 min, heart",.72 PERCENTAGE OF DOSE
same,Percentage of dose per kg b.wt.,"[2]; i.v., 90 min, kidney",.78 PERCENTAGE OF DOSE per kg b.wt
same,uMoles in tissue,"[2]; i.v., 90 min, kidney",.15 µmol
same,uMoles per gram tissue,"[2]; i.v., 90 min, kidney",.06 uMOLES per gram
same,uMoles per kg,"[2]; i.v., 90 min, kidney",57.84 uMOLES per kg
same,Percentage of dose in tissue,"[2]; i.v., 90 min, kidney",.34 PERCENTAGE OF DOSE
same,Percentage of dose per kg b.wt.,"[2]; i.v., 90 min, liver",13.88 PERCENTAGE OF DOSE per kg b.wt
same,uMoles in tissue,"[2]; i.v., 90 min, liver",2.63 µmol
same,uMoles per gram tissue,"[2]; i.v., 90 min, liver",.20 uMOLES per gram
same,uMoles per kg,"[2]; i.v., 90 min, liver",201.73 uMOLES per kg
same,Percentage of dose in tissue,"[2]; i.v., 90 min, liver",6.04 PERCENTAGE OF DOSE
same,Percentage of dose per kg b.wt.,"[2]; i.v., 90 min, lower GI",1.45 PERCENTAGE OF DOSE per kg b.wt
same,uMoles in tissue,"[2]; i.v., 90 min, lower GI",.27 µmol
same,uMoles per gram tissue,"[2]; i.v., 90 min, lower GI",.18 uMOLES per gram
same,uMoles per kg,"[2]; i.v., 90 min, lower GI",178.09 uMOLES per kg
same,Percentage of dose in tissue,"[2]; i.v., 90 min, lower GI",.63 PERCENTAGE OF DOSE
same,Percentage of dose per kg b.wt.,"[2]; i.v., 90 min, lung",1.91 PERCENTAGE OF DOSE per kg b.wt
same,uMoles in tissue,"[2]; i.v., 90 min, lung",.36 µmol
same,uMoles per gram tissue,"[2]; i.v., 90 min, lung",.28 uMOLES per gram
same,uMoles per kg,"[2]; i.v., 90 min, lung",277.64 uMOLES per kg
same,Percentage of dose in tissue,"[2]; i.v., 90 min, lung",.83 PERCENTAGE OF DOSE
same,Percentage of dose per kg b.wt.,"[2]; i.v., 90 min, spleen",.55 PERCENTAGE OF DOSE per kg b.wt
same,uMoles in tissue,"[2]; i.v., 90 min, spleen",.10 µmol
same,uMoles per gram tissue,"[2]; i.v., 90 min, spleen",.16 uMOLES per gram
same,uMoles per kg,"[2]; i.v., 90 min, spleen",164.06 uMOLES per kg
same,Percentage of dose in tissue,"[2]; i.v., 90 min, spleen",.24 PERCENTAGE OF DOSE
same,Percentage of dose per kg b.wt.,"[2]; i.v., 90 min, upper GI",.94 PERCENTAGE OF DOSE per kg b.wt
same,uMoles in tissue,"[2]; i.v., 90 min, upper GI",.18 µmol
same,uMoles per gram tissue,"[2]; i.v., 90 min, upper GI",.14 uMOLES per gram
same,uMoles per kg,"[2]; i.v., 90 min, upper GI",140.23 uMOLES per kg
same,Percentage of dose in tissue,"[2]; i.v., 90 min, upper GI",.41 PERCENTAGE OF DOSE
same,tissue uptake at 1.5 h,"[2]; 90 min, heart",0.56 %ID/g
same,tissue uptake at 1.5 h,"[2]; 90 min, kidney",0.13 %ID/g
same,tissue uptake at 1.5 h,"[2]; 90 min, liver",0.46 %ID/g
same,tissue uptake at 1.5 h,"[2]; 90 min, lower GI",0.41 %ID/g
same,tissue uptake at 1.5 h,"[2]; 90 min, lung",0.64 %ID/g
same,tissue uptake at 1.5 h,"[2]; 90 min, spleen",0.38 %ID/g
same,tissue uptake at 1.5 h,"[2]; 90 min, upper GI",0.32 %ID/g
same,concentration at 1.5 h,"[2]; kidney, i.v., 90 min post injection, heading: kidney concentration, read-out: kidney concentration",57.8 µM
same,concentration at 1.5 h,"[2]; kidney, i.v., 90 min post injection, read-out: Kidney concentration",57.8 µM
same,concentration at 1.5 h,"[2]; liver, i.v., 90 min post injection, read-out: Liver concentration",202 µM
same,concentration at 1.5 h,"[2]; liver, i.v., 90 min post injection, read-out: liver concentration",202 µM
same,concentration at 1.5 h,"[2]; lower gi, i.v., 90 min, liver standard curve used, may be erroneous, read-out: Lower GI concentration",178 µM
same,concentration at 1.5 h,"[2]; lung, i.v., 90 min, liver standard curve used, may be erroneous, read-out: Lung concentration",278 µM
same,concentration at 1.5 h,"[2]; spleen, i.v., 90 min, liver standard curve used, may be erroneous, read-out: Spleen concentration",164 µM
same,concentration at 1.5 h,"[2]; upper gi, i.v., 90 min, liver standard curve used, may be erroneous, read-out: Upper GI concentration",140 µM
same,concentration at 10 min,"[3]; plasma, iv, 100 umol/kg, 10 min",863 µM
same,concentration at 20 min,"[3]; plasma, iv, 100 umol/kg, 20 min",604 µM
same,concentration at 0.5 h,"[3]; plasma, iv, 100 umol/kg, 30 min",573 µM
same,concentration at 40 min,"[3]; plasma, iv, 100 umol/kg, 40 min",510 µM
same,concentration at 50 min,"[3]; plasma, iv, 100 umol/kg, 50 min",469 µM
same,concentration at 1 h,"[3]; plasma, iv, 100 umol/kg, 60 min",415 µM
same,concentration at 70 min,"[3]; plasma, iv, 100 umol/kg, 70 min",374 µM
same,concentration at 80 min,"[3]; plasma, iv, 100 umol/kg, 80 min",403 µM
same,concentration at 1.5 h,"[3]; plasma, iv, 100 umol/kg, 90 min",360 µM
same,Plasma concentration,[3]; 0 min,0 nM
same,Urine concentration,[4]; 0-20 min,0 µM
same,Urine concentration,[4]; 20-40 min,0 µM
